Columns and labels:
Assay in all cases: Cysteine liganding, probe competition
Type in all cases: binding
[1] = target: T1, BIRC2 Baculoviral IAP repeat-containing protein 2 (Homo sapiens, UniProt Q13490); settings: for Liganded: BIRC2 Res# 45, uniprot Q13490
T1 construct: Cells were resuspended in cold PBS on ice and sonicated with a probe sonicator to achieve lysis; endogenous in cells
How it was run: (§1)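 Lysates from probe-sonicated cells in PBS (5 mg/ml proteome) were exposed to compound for 1 hr at 25° C, then labelled with desthiobiotin iodoacetamide probe (10 mM stock) for 1 hr at 25° C. Probe-tagged peptides were streptavidin-enriched after trypsin digestion.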

[2] = target: T2, MT-ND5 NADH-ubiquinone oxidoreductase chain 5 (Homo sapiens, UniProt P03915); settings: for Liganded: MT-ND5 Res# 518, uniprot P03915
T2 construct: Cells were resuspended in cold PBS on ice and sonicated with a probe sonicator to achieve lysis; endogenous in cells
T2 sequence (P03915 whole entry): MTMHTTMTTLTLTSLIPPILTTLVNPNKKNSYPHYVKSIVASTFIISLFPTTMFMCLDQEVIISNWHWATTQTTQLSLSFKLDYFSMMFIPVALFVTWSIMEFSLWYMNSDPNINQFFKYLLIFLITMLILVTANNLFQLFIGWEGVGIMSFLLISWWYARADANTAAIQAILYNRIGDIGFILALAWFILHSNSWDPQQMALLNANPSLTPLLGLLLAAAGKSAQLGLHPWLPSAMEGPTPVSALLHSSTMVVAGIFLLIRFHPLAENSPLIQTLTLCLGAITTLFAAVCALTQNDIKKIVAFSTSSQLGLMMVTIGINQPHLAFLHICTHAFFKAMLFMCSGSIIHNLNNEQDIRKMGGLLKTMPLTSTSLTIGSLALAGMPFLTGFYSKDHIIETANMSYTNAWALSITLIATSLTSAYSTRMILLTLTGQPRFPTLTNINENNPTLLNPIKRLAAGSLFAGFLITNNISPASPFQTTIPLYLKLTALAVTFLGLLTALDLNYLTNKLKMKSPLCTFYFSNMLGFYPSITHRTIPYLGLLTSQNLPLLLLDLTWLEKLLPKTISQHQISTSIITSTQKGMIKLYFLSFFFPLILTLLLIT
How it was run: as §1

[3] = target: T3, ZNF644 Zinc finger protein 644 (Homo sapiens, UniProt Q9H582)
T3 construct: Cells were resuspended in cold PBS on ice and sonicated with a probe sonicator to achieve lysis; endogenous in cells
T3 sequence (Q9H582 1-1327): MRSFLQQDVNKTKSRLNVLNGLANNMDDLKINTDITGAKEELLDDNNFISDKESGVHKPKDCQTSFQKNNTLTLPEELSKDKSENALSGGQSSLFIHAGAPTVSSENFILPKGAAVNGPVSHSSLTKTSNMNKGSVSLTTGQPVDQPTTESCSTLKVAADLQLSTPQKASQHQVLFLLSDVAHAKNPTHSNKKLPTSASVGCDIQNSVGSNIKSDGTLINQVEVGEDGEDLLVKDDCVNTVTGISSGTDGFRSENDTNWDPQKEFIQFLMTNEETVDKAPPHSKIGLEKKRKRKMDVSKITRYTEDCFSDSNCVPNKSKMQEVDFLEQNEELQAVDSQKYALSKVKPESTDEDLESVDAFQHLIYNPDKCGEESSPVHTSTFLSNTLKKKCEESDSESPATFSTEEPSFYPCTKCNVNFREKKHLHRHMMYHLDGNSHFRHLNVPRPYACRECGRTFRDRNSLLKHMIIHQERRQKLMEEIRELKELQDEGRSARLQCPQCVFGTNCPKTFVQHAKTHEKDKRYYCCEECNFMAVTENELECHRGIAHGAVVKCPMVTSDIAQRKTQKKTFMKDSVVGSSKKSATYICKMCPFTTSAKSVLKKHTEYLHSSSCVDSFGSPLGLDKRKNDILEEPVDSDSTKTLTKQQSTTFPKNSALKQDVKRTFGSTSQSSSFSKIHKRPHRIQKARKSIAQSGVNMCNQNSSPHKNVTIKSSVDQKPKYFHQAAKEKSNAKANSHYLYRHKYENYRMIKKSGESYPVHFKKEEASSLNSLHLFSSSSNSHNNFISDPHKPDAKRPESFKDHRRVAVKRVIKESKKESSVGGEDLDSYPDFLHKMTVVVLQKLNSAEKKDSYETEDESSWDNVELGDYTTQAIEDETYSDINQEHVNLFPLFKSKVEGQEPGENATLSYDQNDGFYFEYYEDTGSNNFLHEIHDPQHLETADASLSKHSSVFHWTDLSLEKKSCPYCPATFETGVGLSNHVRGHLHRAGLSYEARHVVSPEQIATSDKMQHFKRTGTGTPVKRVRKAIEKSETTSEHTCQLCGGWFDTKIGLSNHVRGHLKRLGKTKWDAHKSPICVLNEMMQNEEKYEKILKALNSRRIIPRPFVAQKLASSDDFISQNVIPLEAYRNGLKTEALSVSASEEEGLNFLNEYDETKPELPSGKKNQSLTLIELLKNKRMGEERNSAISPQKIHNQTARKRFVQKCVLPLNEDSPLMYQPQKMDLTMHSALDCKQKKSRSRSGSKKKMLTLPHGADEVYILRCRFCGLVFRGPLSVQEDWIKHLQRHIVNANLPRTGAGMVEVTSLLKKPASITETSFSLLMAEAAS
How it was run: as §1

T1 sequence (Q13490 whole entry): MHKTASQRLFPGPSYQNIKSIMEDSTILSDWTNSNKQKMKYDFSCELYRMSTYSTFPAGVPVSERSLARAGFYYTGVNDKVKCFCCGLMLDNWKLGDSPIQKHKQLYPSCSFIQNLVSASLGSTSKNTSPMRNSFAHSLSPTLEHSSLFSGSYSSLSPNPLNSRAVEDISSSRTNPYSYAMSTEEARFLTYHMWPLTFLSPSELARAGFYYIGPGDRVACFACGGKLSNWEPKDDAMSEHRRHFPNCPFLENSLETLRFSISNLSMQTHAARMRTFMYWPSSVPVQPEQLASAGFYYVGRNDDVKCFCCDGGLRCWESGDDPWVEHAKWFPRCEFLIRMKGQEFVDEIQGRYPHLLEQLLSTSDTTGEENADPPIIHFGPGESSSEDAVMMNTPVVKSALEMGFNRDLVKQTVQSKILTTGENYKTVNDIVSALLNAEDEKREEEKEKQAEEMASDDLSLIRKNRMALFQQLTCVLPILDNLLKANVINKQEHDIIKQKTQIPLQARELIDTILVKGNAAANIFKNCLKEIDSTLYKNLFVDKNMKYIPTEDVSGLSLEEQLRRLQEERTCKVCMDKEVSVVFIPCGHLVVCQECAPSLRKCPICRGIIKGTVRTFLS

Structure (SMILES)	Liganded [1]	Liganded [2]	Liganded ([3]; ZNF644 Res# 507, uniprot Q9H582)	100 Max ([1]; uniprot Q13490)	100 ave ([1]; uniprot Q13490)	500 Max ([1]; uniprot Q13490)	500 ave ([1]; uniprot Q13490)	100 ave ([2]; uniprot P03915)	100 Max ([2]; uniprot P03915, in % (unit assumed))	100 Max ([3]; uniprot Q9H582)	100 ave ([3]; uniprot Q9H582)	500 ave ([3]; uniprot Q9H582)	500 Max ([3]; uniprot Q9H582, in % (unit assumed))
COc1ccc2c(c1)CCCN2C(=O)CCl [KB02]	YES	YES	YES	–	–	–	–	–	–	–	–	–	–
O=C(CCl)Nc1cc(C(F)(F)F)cc(C(F)(F)F)c1 [KBO3]	YES	YES	–	47.9	41.4	92.0	85.9	83.61	83.61	24.53	11.2825	67.685	72.77
